Measured values as given in PubChem BioAssay AID328 (DTP/NCI, 2004).
Several values for one entry are separate records, joined by “and”; a condition that tells them apart may be missing. Identical values can stand only once. Toxic doses and inconclusive results are not listed. How the source made its calls: active means survival T/C of 150% or more; inactive means T/C below 125% in these data.

Tested on: BDF1 mice, P388 leukemia ip, median survival T/C
Experiment: NCI In Vivo Anticancer Drug Screen. Data for tumor model P388 Leukemia (intraperitoneal) in B6D2F1 (BDF1) mice
Details: endpoint: median survival time, higher = longer survival
Procedure, shortened: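 Each value expresses how treatment altered survival: treated-mouse outcome over vehicle-mouse outcome, both groups bearing the transplanted tumour.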

[1] = dose: 50.0 mg/kg/injection, schedule: Q01DX009 (ip), vehicle: saline with Tween-80
[2] = dose: 100.0 mg/kg/injection, schedule: Q01DX009 (ip), vehicle: saline with Tween-80
[3] = dose: 200.0 mg/kg/injection, schedule: Q01DX009 (ip), vehicle: saline with Tween-80
[4] = dose: 100.0 mg/kg/injection, schedule: Q04DX003 (ip), vehicle: saline
[5] = dose: 200.0 mg/kg/injection, schedule: Q04DX003 (ip), vehicle: saline
[6] = dose: 50.0 mg/kg/injection, schedule: Q01DX009 (ip), vehicle: saline
[7] = dose: 100.0 mg/kg/injection, schedule: Q01DX009 (ip), vehicle: saline
[8] = dose: 200.0 mg/kg/injection, schedule: Q01DX009 (ip), vehicle: saline
[9] = dose: 400.0 mg/kg/injection, schedule: Q04DX003 (ip), vehicle: saline
[10] = dose: 100.0 mg/kg/injection, schedule: Q04DX003 (ip), vehicle: saline with Tween-80
[11] = dose: 200.0 mg/kg/injection, schedule: Q04DX003 (ip), vehicle: saline with Tween-80
[12] = dose: 400.0 mg/kg/injection, schedule: Q04DX003 (ip), vehicle: saline with Tween-80
[13] = dose: 12.5 mg/kg/injection, schedule: Q01DX009 (ip), vehicle: saline with Tween-80
[14] = dose: 25.0 mg/kg/injection, schedule: Q01DX009 (ip), vehicle: saline with Tween-80
[15] = dose: 50.0 mg/kg/injection, schedule: Q04DX003 (ip), vehicle: saline with Tween-80

Measured: T/C

OCC1OC(n2cnc3c2NC=NC[C@H]3O)CC1O (stereo partly drawn)
inactive: dose: 0.25 mg/kg/injection, schedule: Q01DX005 (ip), vehicle: water 102 % of control | dose: 0.25 mg/kg/injection, schedule: Q01DX009 (ip), vehicle: water 105 % of control | dose: 0.25 mg/kg/injection, schedule: Q04DX002 (ip), vehicle: saline 102 % of control | dose: 0.25 mg/kg/injection, schedule: Q04DX003 (ip), vehicle: saline 100 % of control | dose: 0.5 mg/kg/injection, schedule: Q01DX005 (ip), vehicle: water 109 % of control | dose: 0.5 mg/kg/injection, schedule: Q01DX009 (ip), vehicle: water 102 % of control | dose: 0.5 mg/kg/injection, schedule: Q04DX002 (ip), vehicle: saline 101 % of control | dose: 0.5 mg/kg/injection, schedule: Q04DX003 (ip), vehicle: saline 99 % of control | dose: 0.8 mg/kg/injection, schedule: Q01DX009 (ip), vehicle: saline 94 % of control | dose: 1.0 mg/kg/injection, schedule: Q01DX009 (ip), vehicle: saline 99 % of control | dose: 1.3 mg/kg/injection, schedule: Q01DX009 (ip), vehicle: saline 92 % of control | dose: 1.5 mg/kg/injection, schedule: Q01DX009 (ip), vehicle: saline 96 % of control | dose: 2.0 mg/kg/injection, schedule: Q01DX001 (ip), vehicle: saline 108 % of control | dose: 2.0 mg/kg/injection, schedule: Q01DX009 (ip), vehicle: saline 92 % of control | dose: 2.25 mg/kg/injection, schedule: Q01DX009 (ip), vehicle: saline 99 % of control | dose: 3.0 mg/kg/injection, schedule: Q01DX009 (ip), vehicle: saline 100 % of control | dose: 4.0 mg/kg/injection, schedule: Q01DX001 (ip), vehicle: saline 100 % of control

O=c1c2ccccc2ncn1-c1ccc(Cl)cc1
inactive: [1] 97 % of control | [2] 100 % of control | [3] 100 % of control

CC(C)CCCCCCCCCCCCC(=O)NCC(=O)NC1C(O)C(O)C(Nc2ncnc3nc[nH]c23)OC1C(O)CO (stereo not drawn)
inactive: dose: 0.13 mg/kg/injection, schedule: Q01DX010 (ip), vehicle: steriod suspending solution 90 % of control
active: dose: 0.09 mg/kg/injection, schedule: Q01DX010 (ip), vehicle: carboxymethylcellulose (CMC) 160 % of control | dose: 0.18 mg/kg/injection, schedule: Q01DX010 (ip), vehicle: carboxymethylcellulose (CMC) 180 % of control | dose: 0.37 mg/kg/injection, schedule: Q01DX010 (ip), vehicle: carboxymethylcellulose (CMC) 175 % of control | dose: 0.37 mg/kg/injection, schedule: Q01DX010 (ip), vehicle: steriod suspending solution 165 % of control

CC(=O)c1cccc(OCC(O)CN(C(C)C)C(C)C)c1 (stereo not drawn)
inactive: [4] 104 % of control | [5] 109 % of control

O=C(N[C@@H](c1ccccc1)[C@H](N=Cc1ccccc1)c1ccccc1)c1ccccc1
inactive: [6] 102 % of control | dose: 50.0 mg/kg/injection, schedule: Q04DX003 (ip), vehicle: saline 91 % of control | [7] 100 % of control | [4] 92 % of control | [8] 91 % of control | [5] 91 % of control | dose: 400.0 mg/kg/injection, schedule: Q01DX009 (ip), vehicle: saline 94 % of control | [9] 90 % of control

CC(=O)Nc1c(Cl)c(Cl)c2c(c1Cl)C(=O)c1cc(Cl)ccc1-2
inactive: [2] 90 % of control | [10] 90 % of control | [11] 90 % of control | [12] 95 % of control

CC(C)N(C)Cc1ccccc1Sc1ccccc1CN(C)C(C)C
inactive: dose: 100.0 mg/kg/injection, schedule: Q01DX001 (ip), vehicle: other 108 % of control | dose: 200.0 mg/kg/injection, schedule: Q01DX001 (ip), vehicle: other 107 % of control | dose: 400.0 mg/kg/injection, schedule: Q01DX001 (ip), vehicle: other 97 % of control

O=[N+]([O-])c1ccc(N/N=C/CC(O)CO)c([N+](=O)[O-])c1 (stereo not drawn)
inactive: [7] 100 % of control | [8] 120 % of control

CN(C)[C@@H]1C(=O)C(C(=O)NCN(CCCl)CCCl)=C(O)[C@@]2(O)C(=O)C3=C(O)c4c(O)cccc4[C@@](C)(O)[C@H]3C[C@@H]12
active: dose: 9.0 mg/kg/injection, schedule: Q01DX009 (ip), vehicle: saline 159 % of control | dose: 14.0 mg/kg/injection, schedule: Q01DX009 (ip), vehicle: saline 172 % of control | dose: 20.0 mg/kg/injection, schedule: Q04DX003 (ip), vehicle: saline 150 % of control | dose: 22.0 mg/kg/injection, schedule: Q01DX009 (ip), vehicle: saline 161 % of control and 209 % of control | dose: 33.0 mg/kg/injection, schedule: Q01DX009 (ip), vehicle: saline 169 % of control | dose: 33.0 mg/kg/injection, schedule: Q04DX003 (ip), vehicle: saline with Tween-80 163 % of control | dose: 44.0 mg/kg/injection, schedule: Q04DX003 (ip), vehicle: saline 186 % of control | dose: 50.0 mg/kg/injection, schedule: Q01DX009 (ip), vehicle: Klucel (hydroxypropylcellulose) (HPC) 163 % of control | [6] 203 % of control and 208 % of control | [15] 186 % of control | dose: 67.0 mg/kg/injection, schedule: Q04DX003 (ip), vehicle: saline 196 % of control | dose: 75.0 mg/kg/injection, schedule: Q01DX009 (ip), vehicle: saline 211 % of control | dose: 75.0 mg/kg/injection, schedule: Q04DX003 (ip), vehicle: saline with Tween-80 218 % of control | [4] 229 % of control and 220 % of control
inactive: dose: 3.12 mg/kg/injection, schedule: Q01DX009 (ip), vehicle: saline with Tween-80 104 % of control | dose: 6.25 mg/kg/injection, schedule: Q01DX009 (ip), vehicle: Klucel (hydroxypropylcellulose) (HPC) 91 % of control | dose: 6.25 mg/kg/injection, schedule: Q01DX009 (ip), vehicle: saline with Tween-80 100 % of control | dose: 12.5 mg/kg/injection, schedule: Q01DX009 (ip), vehicle: Klucel (hydroxypropylcellulose) (HPC) 108 % of control | [13] 100 % of control | [14] 90 % of control and 109 % of control | [1] 86 % of control and 109 % of control | [2] 109 % of control | [5] 91 % of control

CC1CCC(NC2=NCCO2)C1 (stereo not drawn)
inactive: dose: 100.0 mg/kg/injection, schedule: Q01DX001 (ip), vehicle: saline with Tween-80 87 % of control | dose: 200.0 mg/kg/injection, schedule: Q01DX001 (ip), vehicle: saline with Tween-80 91 % of control | dose: 400.0 mg/kg/injection, schedule: Q01DX001 (ip), vehicle: saline with Tween-80 95 % of control

CNC(=S)N1N=C(C)CC1=O
inactive: dose: 37.5 mg/kg/injection, schedule: Q01DX009 (ip), vehicle: saline with Tween-80 106 % of control | dose: 75.0 mg/kg/injection, schedule: Q01DX009 (ip), vehicle: saline with Tween-80 99 % of control

C/C(=C\c1ccccc1)C(C)(C)C(=O)O
inactive: [1] 102 % of control | [2] 96 % of control | [3] 99 % of control

O=[n+]1c2ccccc2n([O-])c2ccccc21.[Cl][Ni][Cl]
inactive: dose: 6.25 mg/kg/injection, schedule: Q04DX003 (ip), vehicle: saline with Tween-80 105 % of control | dose: 12.5 mg/kg/injection, schedule: Q04DX003 (ip), vehicle: saline with Tween-80 112 % of control

c1ccc(CN2CCN(Cc3ccccc3)C2c2ccccc2)cc1
inactive: [14] 103 % of control | [1] 97 % of control | [15] 107 % of control | [2] 97 % of control | [10] 107 % of control | [3] 104 % of control | [11] 103 % of control | dose: 400.0 mg/kg/injection, schedule: Q01DX009 (ip), vehicle: saline with Tween-80 106 % of control | [12] 96 % of control

CC1(C)OC(COCCOCCO)C(COCCOCCO)O1 (stereo not drawn)
inactive: [4] 96 % of control | [5] 103 % of control | [9] 96 % of control

O=c1[nH]c(C(F)(F)F)nc2c1nc1n2CCC1
inactive: [10] 104 % of control | [11] 100 % of control | [12] 100 % of control

CCCCCCCCCCCCCCCC(=O)N(c1ccc(NC(=O)Nc2ccc(N(C(=O)CCCCCCCCCCCCCCC)C(C)CCCN(CC)CC)cc2)cc1)C(C)CCCN(CC)CC (stereo not drawn)
inactive: [13] 94 % of control | [14] 87 % of control | [1] 97 % of control | [10] 93 % of control | [11] 99 % of control | [12] 102 % of control
